# Source: PMC3914206
# Assays:
# Type in all cases: binding
# Details in all cases: Compound Concentration 10 µM
# panel of 442 kinases [1] = target: T1, panel of 442 kinases (Homo sapiens, UniProt P00533, DEL746-750)
# T1 construct: purchased KINOMEscan
# Description: (§1) We assessed the selectivity of members of this scaffold using the KINOMEscan methodology across a near comprehensive panel of 442 kinases [[18,27]].
# panel of 442 kinases [2] = target: T2, panel of 442 kinases (Homo sapiens, UniProt P14616)
# T2 construct: purchased KINOMEscan
# T2 sequence (P14616 27-1297): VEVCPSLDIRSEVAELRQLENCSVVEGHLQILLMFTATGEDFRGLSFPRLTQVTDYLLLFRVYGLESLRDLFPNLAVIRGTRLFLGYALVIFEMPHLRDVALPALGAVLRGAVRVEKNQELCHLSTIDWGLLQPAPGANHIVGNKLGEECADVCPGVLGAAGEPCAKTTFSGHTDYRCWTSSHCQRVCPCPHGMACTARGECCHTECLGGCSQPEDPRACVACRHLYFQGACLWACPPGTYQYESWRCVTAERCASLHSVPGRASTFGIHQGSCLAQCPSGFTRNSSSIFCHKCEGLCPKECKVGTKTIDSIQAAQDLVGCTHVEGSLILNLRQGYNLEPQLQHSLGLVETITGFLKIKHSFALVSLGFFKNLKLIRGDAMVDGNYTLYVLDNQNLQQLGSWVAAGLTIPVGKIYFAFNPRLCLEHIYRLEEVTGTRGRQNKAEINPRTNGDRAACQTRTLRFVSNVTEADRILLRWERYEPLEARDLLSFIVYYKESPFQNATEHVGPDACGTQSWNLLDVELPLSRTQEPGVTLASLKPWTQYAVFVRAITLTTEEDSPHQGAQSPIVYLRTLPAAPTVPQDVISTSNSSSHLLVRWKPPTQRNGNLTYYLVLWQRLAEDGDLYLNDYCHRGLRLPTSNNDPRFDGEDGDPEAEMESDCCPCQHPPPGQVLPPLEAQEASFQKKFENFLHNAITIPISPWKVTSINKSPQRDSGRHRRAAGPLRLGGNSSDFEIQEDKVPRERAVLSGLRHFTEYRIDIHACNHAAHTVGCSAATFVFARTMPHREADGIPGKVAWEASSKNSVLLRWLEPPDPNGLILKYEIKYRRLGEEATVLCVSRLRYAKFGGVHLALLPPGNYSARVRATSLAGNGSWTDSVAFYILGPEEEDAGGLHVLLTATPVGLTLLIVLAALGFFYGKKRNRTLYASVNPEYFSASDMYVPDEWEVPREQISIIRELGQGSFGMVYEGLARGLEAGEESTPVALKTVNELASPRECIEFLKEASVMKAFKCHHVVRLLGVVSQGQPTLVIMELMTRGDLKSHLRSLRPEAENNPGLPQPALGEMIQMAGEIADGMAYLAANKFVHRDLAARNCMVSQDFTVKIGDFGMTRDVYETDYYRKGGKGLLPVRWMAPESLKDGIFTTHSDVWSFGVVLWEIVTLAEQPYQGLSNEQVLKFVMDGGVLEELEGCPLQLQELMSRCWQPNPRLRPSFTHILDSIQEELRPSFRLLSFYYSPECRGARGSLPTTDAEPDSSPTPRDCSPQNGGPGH
# Description: as §1
# panel of 442 kinases [3] = target: T3, panel of 442 kinases (Homo sapiens, UniProt P53778)
# T3 construct: purchased KINOMEscan
# T3 sequence (P53778 1-367): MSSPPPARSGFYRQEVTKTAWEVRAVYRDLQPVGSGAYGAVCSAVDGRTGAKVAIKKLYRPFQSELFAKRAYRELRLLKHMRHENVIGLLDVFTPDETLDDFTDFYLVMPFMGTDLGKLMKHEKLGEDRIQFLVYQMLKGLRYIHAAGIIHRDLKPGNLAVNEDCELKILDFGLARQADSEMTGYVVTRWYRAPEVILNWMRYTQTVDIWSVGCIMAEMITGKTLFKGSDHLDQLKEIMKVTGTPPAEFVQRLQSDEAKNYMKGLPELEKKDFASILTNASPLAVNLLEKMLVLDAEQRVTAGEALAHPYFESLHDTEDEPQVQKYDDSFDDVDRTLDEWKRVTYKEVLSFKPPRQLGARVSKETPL
# Description: as §1
# T1 sequence (P00533 with tags, fused parts or gaps DEL746-750): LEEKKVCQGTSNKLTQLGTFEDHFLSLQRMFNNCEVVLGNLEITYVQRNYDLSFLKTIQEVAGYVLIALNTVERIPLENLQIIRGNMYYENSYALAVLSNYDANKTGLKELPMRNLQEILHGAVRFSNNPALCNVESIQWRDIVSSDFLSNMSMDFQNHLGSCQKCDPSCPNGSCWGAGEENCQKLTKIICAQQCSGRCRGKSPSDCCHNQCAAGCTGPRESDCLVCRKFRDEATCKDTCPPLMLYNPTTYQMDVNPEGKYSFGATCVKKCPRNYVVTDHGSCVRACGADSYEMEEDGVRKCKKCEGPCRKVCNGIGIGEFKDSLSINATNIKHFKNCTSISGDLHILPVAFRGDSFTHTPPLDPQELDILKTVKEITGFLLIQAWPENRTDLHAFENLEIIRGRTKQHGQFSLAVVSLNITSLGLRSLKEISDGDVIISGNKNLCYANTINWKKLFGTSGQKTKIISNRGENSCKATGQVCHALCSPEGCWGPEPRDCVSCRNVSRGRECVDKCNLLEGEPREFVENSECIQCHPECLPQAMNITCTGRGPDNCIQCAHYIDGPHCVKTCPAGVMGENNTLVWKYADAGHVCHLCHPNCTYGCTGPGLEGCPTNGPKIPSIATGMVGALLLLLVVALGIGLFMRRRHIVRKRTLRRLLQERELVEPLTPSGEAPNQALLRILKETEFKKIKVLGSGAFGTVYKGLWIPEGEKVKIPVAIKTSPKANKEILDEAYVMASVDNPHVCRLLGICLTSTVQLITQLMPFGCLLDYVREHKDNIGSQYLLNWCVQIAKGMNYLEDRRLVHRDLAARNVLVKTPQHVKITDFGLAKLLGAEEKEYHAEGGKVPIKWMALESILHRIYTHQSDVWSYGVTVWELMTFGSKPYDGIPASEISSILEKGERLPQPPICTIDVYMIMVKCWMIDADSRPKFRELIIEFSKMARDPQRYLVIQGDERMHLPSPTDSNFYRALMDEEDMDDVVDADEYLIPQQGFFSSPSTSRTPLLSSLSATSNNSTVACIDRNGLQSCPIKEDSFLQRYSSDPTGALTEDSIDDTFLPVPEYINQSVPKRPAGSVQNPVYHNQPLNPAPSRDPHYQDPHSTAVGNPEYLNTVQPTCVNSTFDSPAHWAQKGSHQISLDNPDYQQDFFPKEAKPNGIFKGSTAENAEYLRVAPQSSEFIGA
Structure (SMILES),KINOMEscan: EGFR(E746-A750del) (panel of 442 kinases [1]),KINOMEscan: INSRR (panel of 442 kinases [2]),KINOMEscan: p38-gamma (panel of 442 kinases [3])
COc1cc(C(=O)N2CCC(N3CCN(C)CC3)CC2)ccc1Nc1ncc2c(n1)N(C)c1ccccc1C(=O)N2C [15 (LRRK2-IN-1)],72,97,76
CCOc1cc(C(=O)N2CCC(N3CCN(C)CC3)CC2)ccc1Nc1ncc2c(n1)N(C1CCCC1)c1ccccc1C(=O)N2C [Compound 26],100,100,32
"COc1cc(C(=O)N2CCC(N3CCN(C)CC3)CC2)ccc1Nc1ncc2c(n1)N(C1CCCC1)c1ccccc1C(=O)N2C [Compound 25, 11-cyclopentyl-2-((2-methoxy-4-(4-(4-methylpiperazin-1-yl)piperidine-1-carbonyl)phenyl)amino)-5-methyl-5H-benzo[e]pyrimido[5,4-b][1,4]diazepin-6(11H)-one]",80,94,88
